≈ marks a conversion by molar mass, not a printed value. Where “and” joins values, the source holds several entries; their conditions need not be identical. Equal entries are not always repeated. Marks after values point to notes of the source that are not given here.

For data set [1] the following is noted: PBS pH 7.4 with 30% DMSO, 37 °C, pseudo first order.
A short description of data set [2]: Octanol/water partition coefficient determination. It is filed as physicochemical.
For data set [3] the following is noted: fresh rat plasma, 37 °C.
The nature of data set [4]: Stratum corneum/water partition coefficient determination. It is filed as physicochemical, human.
The conditions of data set [5]: pH 7.4.
Another data set can be described thus: Solubility determination. It is filed as physicochemical. To be noted: for solubility: thermodynamic from solid.
The conditions of data set [6]: cited from earlier work.
Setting [7] is: stratum corneum / 5% propylene glycol in water, 24 hrs.

Regarding `O=C(Cc1ccccc1Nc1c(Cl)cccc1Cl)OCCCO` [PD, 1,3 Propylene Glycol Diclofenac Ester], the “Hydrolysis in PBS (half life in hours)” value in data set [1] was 63.9 h. The “Partition coefficient (LogP octanol/water)” value in data set [2] stood at 4.08. Further, in data set [3], the “Bioconversion in plasma (half life in min)” value is 2.4 min and 2.41 min. For the same molecule, the “Partition coefficient (LogK SC/ 5% PG water)” value in data set [4] (setting [7]) was 2.58. Moreover, the “Aqueous solution flux (steady state, across HEM)” value in data set [5] was 0.84(0.25) nmol·cm^−2·hr^−1. For the same molecule, in the data set “Solubility determination”, the “Solubility in 5% PG water” value was 4.8 µM (≈ 1.7 µg/mL), the “Solubility in Hexane” value worked out at 2220 µM (≈ 786 µg/mL), the “Solubility in IPM” value worked out at 13600 µM (≈ 4820 µg/mL) and the Solubility in water came out at 3.3 µM (≈ 1.17 µg/mL).
`COC(=O)Cc1ccccc1Nc1c(Cl)cccc1Cl` [MD, Methanol Diclofenac Ester]: the “Hydrolysis in PBS (half life in hours)” value in data set [1] was found to be 34.6 h. For the same molecule, the “Partition coefficient (LogP octanol/water)” value in data set [2] came to 5.00. Besides, the “Partition coefficient (LogK SC/ 5% PG water)” value in data set [4] (setting [7]) is given as 3.56. Besides, in “Solubility determination”, the “Solubility in 5% PG water” value stood at 1.9 µM (≈ 0.589 µg/mL), the “Solubility in Hexane” value was found to be 21000 µM (≈ 6510 µg/mL), the “Solubility in IPM” value worked out at 43000 µM (≈ 13300 µg/mL) and the Solubility in water worked out at 1.9 µM (≈ 0.589 µg/mL). The “Decrease of solubility in water relative to unionized DA” value in “Solubility determination” (pH 2.5) is reported as “more than 2 folds”.
What is called logP is a log measure of how a compound divides between an organic and an aqueous phase. Lower therefore signals lower lipophilicity. One may read the solubility as the concentration that dissolves in the medium under given conditions. Turning to `O=C(O)Cc1ccccc1Nc1c(Cl)cccc1Cl` [DA, Diclofenac Acid, reference compound], in data set [2] (octanol/0.02 M phosphate buffer pH 2.5, pH 2.5), the logP at 24 h worked out at 4.57. For the same molecule, the “Partition coefficient (LogK SC/ 5% PG water)” value in data set [4] (water substituted with 0.02 M phosphate buffer at pH 2.5, 24 hrs) is 2.97^a. For the same molecule, in data set [6] (ref Drug Bank website), the octanol/water partition coefficient was 4.9. The solubility in “Solubility determination” (organic solvent or mixture, Solubility in IPM) is 12600 µM (≈ 3730 µg/mL); in “Solubility determination” (pH 2.5, aqueous buffer, Solubility in water), 3.4 µM (≈ 1.01 µg/mL).
In the case of `O=C(c1ccccc1)c1ccc2n1CCC2C(=O)O` (stereo not drawn) [ketorolac], the LogPO/W entry in data set [6] is given as “around 1”.
Consider Glycerol Diclofenac Ester [GD], for which the “Partition coefficient (LogP octanol/water)” value in data set [2] is on record as 3.30. For the same molecule, the “Aqueous solution flux (steady state, across HEM)” value in data set [5] is listed as 5.54(0.78) nmol·cm^−2·hr^−1. Further, in “Solubility determination”, the “Solubility in 5% PG water” value was determined as 662 µM, the “Solubility in Hexane” value came out at 386 µM, the “Solubility in IPM” value was determined as 69700 µM and the Solubility in water worked out at 551 µM. Further, the “Increase of solubility in purified water relative to unionized DA” value in the data set “Solubility determination” (pH 2.5) was greater than 100 fold.

These data come from PMC4772728 (Drug development and industrial pharmacy, 2013).
